Our source for the IC50 values is patent US11512053B2, “Arginine methyltransferase inhibitors and uses thereof” (priority 2013, dated 2022).

In the experiment the target is full-length human PRMT8 isoform 1 (Homo sapiens, UniProt Q9NR22). Description: PRMT8 Biochemical Assay (3H-SAM Flashplate, peptide substrate). The conditions noted are these: read-out: Biochemical IC50 PRMT8. From the text:
General Materials. S-adenosylmethionine (SAM), S-adenosylhomocysteine (SAH), bicine, Tween20, dimethylsulfoxide (DMSO), bovine skin gelatin (BSG), isopropyl-β-D-thiogalactopyranoside (IPTG), and Tris(2-carboxyethyl)phosphine hydrochloride solution (TCEP) were purchased from Sigma-Aldrich at the highest level of purity possible. ^3H-SAM was purchase from American Radiolabeled Chemicals with a specific activity of 80 Ci/mmol. 384-well streptavidin Flashplates were purchased from PerkinElmer.
Substrates. Peptide representative of human histone H4 residues 31-45 was synthesized with an N-terminal linker-affinity tag motif and a C-terminal amide cap by 21st Century Biochemicals. The peptide was purified by high-performance liquid chromatography (HPLC) to greater than 95% purity and confirmed by liquid chromatography mass spectrometry (LC-MS). The sequence was Biot-Ahx-[…]-amide (SEQ ID NO.:8).
The resulting construct encodes an N-terminal GST tag and a thrombin cleavage sequence ([…] […] […] […] SPEF) (SEQ ID NO.:9) fused directly to Met 1 of PRMT8.
Protein Expression. E. coli (BL21(DE3) Gold, Stratagene) made competent by the CaCl2) method were transformed with the PRMT8 construct and ampicillin selection. Protein over-expression was accomplished by growing the PRMT8 expressing E. coli clone and inducing expression with 0.3 mM IPTG at 16° C. The culture was grown for 12 hours, harvested by centrifugation, and stored at −80° C. for purification.
Protein Purification. […] GST-tagged PRMT8 was eluted with 50 mM Tris, 2 mM glutathione, pH 7.8. Pooled fractions were cleaved by thrombin (10U) and dialysed in buffer A. GST was removed by reloading the cleaved protein sample onto glutathione sepharose column and PRMT8 was collected in the flow-through fractions. PRMT8 was purified further by ceramic hydroxyapatite chromatography. The column was washed with 50 mM phosphate buffer, 100 mM NaCl, 5% glycerol, 5 mM β-mercaptoethanol, pH 7.8 and PRMT8 was eluted by 100 mM phosphate in the same buffer. Protein was concentrated and buffer was exchanged to 50 mM Tris, 300 mM NaCl, 10% glycerol, 5 mM β-mercaptoethanol, pH 7.8 by ultrafiltration. The purity of recovered protein was 89%.
General Procedure for PRMT8 Enzyme Assays on Peptide Substrates. The assays were all performed in a buffer consisting of 20 mM Bicine (pH=7.6), 1 mM TCEP, 0.005% BSG, and 0.002% Tween 20, prepared on the day of use. Compounds in 100% DMSO (1 ul) were spotted into a polypropylene 384-well V-bottom plates (Greiner) using a Platemate Plus outfitted with a 384-channel head (Thermo Scientific). DMSO (1 ul) was added to Columns 11, 12, 23, 24, rows A-H for the maximum signal control and 1 ul of SAH, a known product and inhibitor of PRMT8, was added to columns 11, 12, 23, 24, rows I-P for the minimum signal control. A cocktail (40 ul) containing the PRMT8 enzyme was added by Multidrop Combi (Thermo-Fisher). The compounds were allowed to incubate with PRMT8 for 30 min at room temperature, then a cocktail (10 ul) containing ^3H-SAM and peptide was added to initiate the reaction (final volume=51 ul). The final concentrations of the components were as follows: PRMT8 was 1.5 nM, ^3H-SAM was 50 nM, non-radiolabeled SAM was 550 nM, peptide was 150 nM, SAH in the minimum signal control wells was 1 mM, and the DMSO concentration was 2%. The assays were stopped by the addition of non-radiolabeled SAM (10 ul) to a final concentration of 400 uM, which dilutes the ^3H-SAM to a level where its incorporation into the peptide substrate is no longer detectable. 50 ul of the reaction in the 384-well polypropylene plate was then transferred to a 384-well Flashplate and the biotinylated peptides were allowed to bind to the streptavidin surface for at least 1 hour before being washed once with 0.1% Tween20 in a Biotek ELx405 plate washer. […]

Setting [1] is: single experiment or average of multiple experiments.

Read-outs that look alike come from different tables or passages of the source.

full-length human PRMT8 isoform 1, sequence (Q9NR22 whole entry, canonical isoform): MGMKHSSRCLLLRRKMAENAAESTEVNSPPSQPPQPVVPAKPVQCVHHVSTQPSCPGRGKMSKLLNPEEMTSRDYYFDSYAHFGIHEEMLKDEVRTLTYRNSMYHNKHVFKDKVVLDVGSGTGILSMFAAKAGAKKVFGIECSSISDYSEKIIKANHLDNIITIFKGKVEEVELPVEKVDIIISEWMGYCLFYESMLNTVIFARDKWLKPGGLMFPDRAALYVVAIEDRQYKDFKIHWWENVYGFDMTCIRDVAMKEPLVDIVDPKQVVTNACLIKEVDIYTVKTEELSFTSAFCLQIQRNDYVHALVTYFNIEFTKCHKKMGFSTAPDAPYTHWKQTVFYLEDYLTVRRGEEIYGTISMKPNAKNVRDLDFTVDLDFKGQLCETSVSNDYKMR

Consider `CNCCN(C)Cc1c[nH]nc1C1CCC(=O)N(Cc2ccccc2)C1` (stereo not drawn) [Compound 115], for which the IC50 (commonly the concentration that gives 50% inhibition) was 101 to 1000 nM. Further, the IC50 under setting [1] came out at 196 nM.
As for `CNCCN(C)Cc1c[nH]nc1C1CCC2(CC1)OCCO2` [Compound 177], the IC50 fell in the range of 101 to 1000 nM. Moreover, under setting [1], the IC50 was 150 nM.
Regarding `CNCCN(C)Cc1c[nH]nc1C1CCC2(CC1)CC2` [Compound 144], the IC50 is under 100 nM. Besides, under setting [1], the IC50 is 78.4 nM.
On the same counts, the results for `CNCCN(C)Cc1c[nH]nc1[C@H]1CC[C@@]2(CCN(Cc3ccccc3)C2=O)CC1` [Compound 127] are under 100 nM and 47.8 nM.
Turning to `CNCCN(C)Cc1c[nH]nc1[C@H]1CC[C@@]2(CCN(Cc3ccc(F)cc3)C2=O)CC1` [Compound 125], the IC50 was under 100 nM. In addition, the IC50 under setting [1] worked out at 9 nM.
For `CNCCN(C)Cc1c[nH]nc1C1CCC(=O)N(CCc2ccccc2)C1` (stereo not drawn) [Compound 110], in that order: under 100 nM and 42.9 nM.
On the same counts, the results for `CNCCN(C)Cc1c[nH]nc1[C@H]1CC[C@]2(CCOC2)CC1` [Compound 142] are under 100 nM and 15.9 nM.
On the same counts, the results for `CNCCN(C)Cc1c[nH]nc1C1CCC2(CCCCO2)CC1` (stereo not drawn) [Compound 137] are under 100 nM and 16.2 nM.
As to `CNCCN(C)Cc1c[nH]nc1[C@H]1CC[C@H](OC2CCCCC2)CC1` [Compound 139], the IC50 fell in the range of 101 to 1000 nM. In addition, the IC50 under setting [1] stood at 116 nM.
As for `CCOC1CC2(CCC(c3n[nH]cc3CN(C)CCNC)CC2)CC1OCC` (stereo not drawn) [Compound 168], the IC50 is under 100 nM. The IC50 under setting [1] was 28.1 nM.
On to `CCOCC1CC(COCC)CC(c2n[nH]cc2CN(C)CCNC)C1` (stereo not drawn) [Compound 119], for which the IC50 is 101 to 1000 nM. Also, the IC50 under setting [1] amounted to 728 nM.
With `CNCCN(C)Cc1c[nH]nc1[C@H]1CC[C@H](OCCOc2ccc(OCCOC)cc2)CC1` [Compound 116], the IC50 was under 100 nM. The IC50 under setting [1] turned out to be 11.8 nM.
For `CNCCN(C)Cc1c[nH]nc1C1CCC(N(CC(C)C)C(=O)CC2CCOCC2)CC1` (stereo not drawn) [Compound 114], the IC50 lay within 101 to 1000 nM. The IC50 under setting [1] was determined as 340 nM.
Regarding `CNCCN(C)Cc1c[nH]nc1C1CCC(O)C2(CCCC2)C1` (stereo not drawn) [Compound 182, 9-[4-({methyl[2-(methylamino)ethyl]amino}methyl)-1H-pyrazol-3-yl]spiro[4.5]decan-6-ol], the IC50 is under 100 nM. In addition, the IC50 under setting [1] stood at 32.3 nM.
`CNCCN(C)Cc1c[nH]nc1[C@H]1CC[C@@]2(CCOC2)CC1` [Compound 141]: the IC50 is under 100 nM. Moreover, under setting [1], the IC50 came out at 29.7 nM.
For the molecule `CNCCN(C)Cc1c[nH]nc1C1CCC2(CC1)NC(=O)NC2=O` (stereo not drawn) [Compound 175], the IC50 was under 100 nM. Also, the IC50 under setting [1] was found to be 29.6 nM.
On to `CNCCN(C)Cc1c[nH]nc1C1CC(OCC(C)C)CC(OCC(C)C)C1` (stereo not drawn) [Compound 122], for which the IC50 was 3010 to 10000 nM. The IC50 under setting [1] worked out at 8370 nM.
With `CNCCN(C)Cc1c[nH]nc1[C@H]1CC[C@@H](O)C2(CCCCC2)C1` (single isomer, unassigned) [Compound 183], the IC50 is under 100 nM. Moreover, under setting [1], the IC50 stood at 39.4 nM.
For `CNCCN(C)Cc1c[nH]nc1[C@H]1CC[C@]2(CCN(Cc3ccc(OCCOC)cc3)C2=O)CC1` [Compound 111], in that order: under 100 nM and 59.9 nM.
With `CCN1C(=O)N(C)CC12CCC(c1n[nH]cc1CN(C)CCNC)CC2` (stereo not drawn) [Compound 162], the IC50 was under 100 nM. Besides, the IC50 under setting [1] is 92.7 nM.
With `CNCCN(C)Cc1c[nH]nc1C1CCC2(CC1)C(=O)NC(=O)N2C` (stereo not drawn) [Compound 161], the IC50 was under 100 nM. Further, under setting [1], the IC50 was found to be 37.4 nM.
Regarding `CNCCN(C)Cc1c[nH]nc1C1CCC(CC(C)C)CC1` (stereo not drawn) [Compound 169], the 50% inhibitory concentration (IC50) is under 100 nM. Besides, the IC50 under setting [1] was 10.2 nM.
On the same counts, the results for `CNCCN(C)Cc1c[nH]nc1C1CCC2(CCNC2=O)CC1` (stereo not drawn) [Compound 176] are under 100 nM and 28.6 nM.
`CNCCN(C)Cc1c[nH]nc1C1CCC(=O)N(CCC(C)C)C1` (stereo not drawn) [Compound 117]: the IC50 lay in the range of 101 to 1000 nM. Also, under setting [1], the IC50 is 143 nM.
On the same counts, the results for `CNCCN(C)Cc1c[nH]nc1[C@H]1CC[C@H](OCCOc2ccccc2)CC1` [Compound 187] are 101 to 1000 nM and 185 nM.
For `CN(CCN)Cc1c[nH]nc1CCc1ccccc1` [Compound 9], in that order: 101 to 1000 nM and 760 nM.
On the same counts, the results for `CCOC1CC(OCC)CC(c2n[nH]cc2CN(C)CCNC)C1` (stereo not drawn) [Compound 132] are 3010 to 10000 nM and 4330 nM.
Regarding `CNCCN(C)Cc1c[nH]nc1[C@H]1CC[C@H](COC)CC1` [Compound 167], the IC50 was under 100 nM. Moreover, the 50% inhibitory concentration (IC50) under setting [1] came out at 13 nM.
For `CNCCN(C)Cc1c[nH]nc1C1CCC(C)(C)C(O)C1` (stereo not drawn) [Compound 185, 2,2-dimethyl-5-[4-({methyl[2-(methylamino)ethyl]amino}methyl)-1H-pyrazol-3-yl]cyclohexan-1-ol], in that order: under 100 nM and 24.4 nM.
With `CNCCN(C)Cc1c[nH]nc1C1CCC2(CC1)CCN(CC(C)C)C2=O` (stereo not drawn) [Compound 164], the IC50 is under 100 nM. Further, under setting [1], the IC50 was found to be 19.1 nM.
On the same counts, the results for `CNCCN(C)Cc1c[nH]nc1[C@H]1CC[C@]2(CCN(CC(C)C)C2=O)CC1` [Compound 124] are under 100 nM and 10.8 nM.
On the same counts, the results for `CNCCN(C)Cc1c[nH]nc1C1CCCC(COCCOC)C1` (stereo not drawn) [Compound 112] are under 100 nM and 69.2 nM.
Regarding `CCCOC1CC(OCCC)CC(c2n[nH]cc2CN(C)CCNC)C1` (stereo not drawn) [Compound 131], the IC50 was 1010 to 3000 nM. Under setting [1], the IC50 was 1970 nM.
In the case of `CNCCN(C)Cc1c[nH]nc1[C@H]1CC[C@@H](OC2CCCCC2)CC1` [Compound 140], the IC50 was under 100 nM. Also, the IC50 under setting [1] was determined as 33.9 nM.
For `CNCCN(C)Cc1c[nH]nc1[C@H]1CC[C@@]2(CCOC2(C)C)CC1` [Compound 106, Methyl [2-(methylamino)ethyl]([3-[(5R,8R)-1,1-dimethyl-2-oxaspiro[4.5]decan-8-yl]-1H-pyrazol-4-yl]methyl)amine], the IC50 was under 100 nM. In addition, the IC50 under setting [1] came out at 14.5 nM.
For `CNCCN(C)Cc1c[nH]nc1[C@H]1CC[C@@]2(CCCO2)CC1` [Compound 143], in that order: under 100 nM and 33 nM.
Consider `CNCCN(C)Cc1c[nH]nc1[C@H]1CC[C@@]2(CCN(CC(C)C)C2=O)CC1` [Compound 129], for which the IC50 is under 100 nM. Further, the IC50 under setting [1] amounted to 83.7 nM.
For `CNCCN(C)Cc1c[nH]nc1C1CCC(OCCOc2ccccc2)CC1` (stereo not drawn) [Compound 136], in that order: under 100 nM and 6.8 nM.
For `CNCCN(C)Cc1c[nH]nc1C1CCC2(CC1)OC(C)CC(C)O2` (stereo not drawn) [Compound 121], in that order: under 100 nM and 32.6 nM.
For `CNCCN(C)Cc1c[nH]nc1[C@H]1CC[C@]2(CCN(Cc3ccccc3)C2=O)CC1` [Compound 128], in that order: under 100 nM and 8.2 nM.
For the molecule `CNCCN(C)Cc1c[nH]nc1[C@H]1CC[C@H](O)C2(CCCCC2)C1` (racemic) [Compound 184, (1S,4S)-4-[4-({methyl[2-(methylamino)ethyl]amino}methyl)-1H-pyrazol-3-yl] spiro[5.5]undecan-1-ol], the IC50 is under 100 nM. For the same molecule, the IC50 under setting [1] was determined as 47.3 nM.
For `CNCCN(C)Cc1c[nH]nc1C1CCC2(CC1)NC(=O)N(C)C2=O` (stereo not drawn) [Compound 170], in that order: under 100 nM and 23.7 nM.
